Test results published in patent US20260007717A1, “ANTIMICROBIAL PEPTIDE COMPOUNDS AND METHODS OF USE” (priority 2022, published 2026).
Values after ≈ are worked out from the molar mass of the structure shown. Values joined by “and” are separate entries in the source; they are usually repeats but may differ in a detail not shown here. Equal entries are not always repeated. Where two headings read alike, the source gives them in different places. Non-standard residues stand in square brackets, D forms with d. Residues, ends and D or L forms follow the SMILES beside them. Aib = CC(C)(N)C(=O)O

Assays:
[1] = system: Streptococcus pneumoniae, methicillin-sensitive Staphylococcus aureus, MRSA, Klebsiella pneumoniae and Pseudomonas aeruginosa; format: cell-based
A. baumannii = test: Bactericidal efficacy in PBS, LB broth and saline; format: cell-based, Acinetobacter baumannii; settings: 1×MIC, 2 h
A. baumannii YQ4 [2] = test: Bactericidal efficacy (LC99.9) in PBS with or without 50% human plasma; format: cell-based, Acinetobacter baumannii; settings: 2 h, listed as COG1410
Protocol: Antibacterial activity in plasma of COG1410 was performed as described previously. […] After incubation with shaking at 200 rpm at 37° C. for 2 hours, the CFUs were counted on LB agar. LC99.9 indicates the lowest peptide concentration that kills ≥99.9% bacteria (ie. a 1000 fold reduction). The experiments were conducted independently for three times.

[3] = system: A. baumannii ATCC19606 and LPS-modified strains pmrAP102R and pmrAP102RmiaAI221V; test: MIC on wild-type and LPS-modified strains; format: cell-based, Acinetobacter baumannii; settings: LB broth
A. baumannii YQ4 [4] = test: ATP leakage assay; format: cell-based, Acinetobacter baumannii; settings: 1×MIC, 30 min
[5] = system: normal human hepatic L02 cells; test: Cytotoxicity, CCK8 assay; settings: 24 h
A. baumannii YQ4 [6] = test: ROS detection with DCFH-DA probe; format: cell-based, Acinetobacter baumannii
A. baumanii YQ4 = test: Induction of resistance through serial passage; settings: after 55 passages at sub-MIC
[7] = Stability in 100% human plasma (inhibition zone on A. baumannii YQ4); format: in vitro ADME
A. baumannii YQ4 [8] = test: Nematode killing assay (infection model); settings: NGM plate; 16 μg/ml COG1410 alone or 2 μg/ml COG1410 plus 1 μg/ml polymyxin B
[9] = system: A. baumannii YQ4 preformed biofilm; test: Biofilm eradication assay, crystal violet; format: cell-based, Acinetobacter baumannii; settings: 24 h
[10] = system: pan-drug resistant (PDR) Acinetobacter baumannii YQ4
A. baumannii YQ4 [11] = system: A. baumannii YQ4
Protocol: The checkerboard method was performed to determine the fractional inhibitory concentration (FIC) index between COG1410 and other antimicrobials. Two-fold serial dilutions of antimicrobials and COG1410 were conducted and mixed in the 96-well plate. […] The experiments were conducted twice independently.

P. gingivalis = format: cell-based; settings: anaerobic BHI broth
Protocol: Briefly, P. gingivalis is grown under anaerobic conditions to mid-log phase as per Dominy et al. […] The microtiter plate method outlined by Jansen (ibid) was used to measure MICs. Compounds and bacteria are added to wells of a microtiter plate and grown anaerobically (P. gingivalis) or with CO2 (L. salivarius) for 24 to 72 hours. Growth is measured with light scattering at 592 nm on a plate reader and absorbance plotted against μg/ml of drug in each well.

[12] = single intravenous injection; cited from earlier work
A. baumannii YQ4 biofilm = test: Static biofilm inhibition, crystal violet; format: cell-based, Acinetobacter baumannii
PDR A. baumannii YQ4 = test: Dynamic time-kill assay in PBS
[13] = system: pan-drug resistant (PDR) Acinetobacter baumannii YQ4; test: microbe, parasite or virus in culture

## CC(=O)N[C@@H](C)C(=O)N[C@@H](CO)C(=O)NC(C)(C)C(=O)N[C@@H](CC(C)C)C(=O)N[C@@H](CCCNC(=N)N)C(=O)N[C@@H](CCCCN)C(=O)N[C@@H](CC(C)C)C(=O)NC(C)(C)C(=O)N[C@@H](CCCCN)C(=O)N[C@@H](CCCNC(=N)N)C(=O)N[C@@H](CC(C)C)C(=O)N[C@@H](CC(C)C)C(N)=O [SEQ ID NO: 1, acetyl-AS-aib-LRKL-aib-KRLL-amide] (Ac-AS[Aib]LRKL[Aib]KRLL-NH2)
[1]
  antimicrobial activity: inactive
A. baumannii
  bactericidal efficacy: near elimination
A. baumannii YQ4 [2]; PBS with 50% human plasma
  LC99.9: 8 μg/ml and 5.6 μM
A. baumannii YQ4 [2]; PBS
  LC99.9: 2 μg/ml and 1.4 μM
[3]
  effect of lipidA modification of LPS on antimicrobial efficacy: did not change the antimicrobial efficacy
A. baumannii YQ4 [4]
  ATP leakage: significantly more than untreated controls and the tigecycline treatment group
[5]
  half-maximal (EC50) toxicity concentration: 58.9 mg/L
A. baumannii YQ4 [6]; 16 μg/ml
  ROS production: significantly increased ROS production
A. baumannii YQ4 [6]; treatment for 20 min
  more ROS detected after treatment: 30%
A. baumanii YQ4
  increase of MIC: 4 fold
[7]; 37° C., first 2 h
  inhibition diameters: did not significantly change
[7]; 4 h
  activity reduced: 6.8%
[7]; 10 h
  activity lost: 20%
[7]; after 10 h
  activity retained: more than 80%
A. baumannii YQ4 [8]
  survival of pre-infected nematodes: alleviated the death of infected nematodes, but the change was not statistically significantly
[9]; 1×MIC
  mature biofilm dispersed: ca. 46%
[9]; 4×MIC
  biofilm eradicated: more than 88%
[10]; A. baumannii YQ4
  MIC: 11.3 µM
[10]; A. baumannii YQ4, LB broth
  MIC: 16 mg/L
[10]; A. baumannii YQ4, listed as COG1410
  minimal bactericidal concentration (MBC): 16 μg/ml and 11.3 μM
A. baumannii YQ4 [11]; COG1410 combined with polymyxin B
  working concentration in the combination: 2 µg/mL
A. baumannii YQ4 [11]; in combination with Ceftazidime
  FIC: 0.31
A. baumannii YQ4 [11]; in combination with polymyxin B
  FIC: 0.13
A. baumannii YQ4 [11]; in combination with tetracycline
  FIC: 0.31
P. gingivalis
  MIC P. gingivalis: 16 to 64 mg/L
[12]
  functional outcome: significantly improved vestibulomotor function and spatial learning and memory
A. baumannii YQ4 biofilm; 0.5×MIC, 48 h
  biofilm formation: significantly reduced biofilm formation
A. baumannii YQ4 biofilm; 1×MIC
  biofilm mass reduced, compared with untreated controls: 55%
Human erythrocytes; 1 h
  EC50 (half of the red blood cells lysed): 441 mg/L
Human erythrocytes; red cells of human, 128 μg/ml
  hemolysis: less than 5%
PDR A. baumannii YQ4; 1×MIC, 30 min
  reduction in CFU: 6 log
PDR A. baumannii YQ4; 1×MIC, within 5 min
  decrease of CFU: ~3 logs
PDR A. baumannii YQ4; 5×MIC, within 5 min
  killing of inoculum (1×10^8 CFU/ml): completely eliminated

## CN(C)c1cc(NC(=O)CNC(C)(C)C)c(O)c2c1C[C@H]1C[C@H]3[C@H](N(C)C)C(O)=C(C(N)=O)C(=O)[C@@]3(O)C(O)=C1C2=O [tigecycline]
[13]
  MIC: 32 mg/L (≈ 54.6 µM)
